Consider 2 compounds from publication PMC10853515, “Identification of potential inhibitor against Leishmania donovani mitochondrial DNA primase through in-silico and in vitro drug repurposing approaches” (Scientific Reports, 2024).

The assay concerns the target T1, mitochondrial DNA primase (LdmtPRI1) (Leishmania donovani, UniProt A0A3S7WXR7).
T1 construct: gene LdCL_230015100; recombinant histidine-tagged LdmtPRI1 (pET28a), purified from E. coli BL21
T1 sequence (A0A3S7WXR7 1-533): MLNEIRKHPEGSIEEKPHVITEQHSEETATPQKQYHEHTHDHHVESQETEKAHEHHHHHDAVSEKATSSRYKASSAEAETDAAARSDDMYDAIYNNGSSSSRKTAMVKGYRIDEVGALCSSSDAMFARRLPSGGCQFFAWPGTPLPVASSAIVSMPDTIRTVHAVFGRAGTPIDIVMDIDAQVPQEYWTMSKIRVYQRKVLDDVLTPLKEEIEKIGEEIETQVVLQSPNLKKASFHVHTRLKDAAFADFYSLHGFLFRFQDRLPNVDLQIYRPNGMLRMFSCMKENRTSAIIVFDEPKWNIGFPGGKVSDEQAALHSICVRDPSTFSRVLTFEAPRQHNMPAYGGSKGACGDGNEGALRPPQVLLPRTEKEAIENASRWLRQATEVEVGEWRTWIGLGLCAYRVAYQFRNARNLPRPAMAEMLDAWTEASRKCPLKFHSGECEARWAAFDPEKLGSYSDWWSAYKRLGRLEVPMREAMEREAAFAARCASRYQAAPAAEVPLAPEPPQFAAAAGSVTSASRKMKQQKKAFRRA
In words: coupled primase-pyrophosphatase malachite green assay, purified enzyme. It counts as biochemical.

By IC50 is commonly meant the point on the concentration scale where inhibition reaches its midpoint. A higher IC50 goes with lower potency. The compound `C/C(=C(\CCOP(=O)(O)O)SC(=O)c1ccccc1)N(C=O)Cc1cnc(C)nc1N` [benfotiamine] displayed an IC50 of 20.68 ± 0.03 nM.
As for `CCCCCOC(=O)Nc1nc(=O)n([C@@H]2O[C@H](C)[C@@H](O)[C@H]2O)cc1F` [capecitabine], the figure is 15.27 ± 0.03 nM.
